Patent publication US20240368694A1 (priority 2021, published 2024)

What was measured:
[1] = tested on: miRNA expression profiles in liver and jejunum; set-up: species or system Sus scrofa; conditions: in vivo
[2] = tested on: miRNAs in serum; set-up: species or system Sus scrofa; conditions: in vivo
[3] = pigs, cited from earlier work
[4] = tested on: ssc-miR-16, ssc-miR-128, ssc-miR-205 and ssc-miR-451 in serum; set-up: species or system Sus scrofa; conditions: in vivo
[5] = tested on: serum interleukins IL1β, IL-8, IL-13, tumor necrosis factor or interferon-gamma; conditions: pigs, 3.3-3.8 ppm DON in feed (Pasternak et al. 2018); cited from earlier work
[6] = tested on: insulin like growth factor 1 (IGF1); conditions: serum levels of growth hormones (Wang et al. 2019; Wu et al. 2013, 2015); cited from earlier work

In the case of `CC1=C[C@H]2O[C@@H]3[C@H](O)C[C@](C)([C@@]2(CO)[C@H](O)C1=O)[C@]31CO1` [DON, (3α,7α)-3,7,15-trihydroxy-12,13-epoxytrichothec-9-en-8-one], the “differentially expressed miRNAs in liver, Control vs DON high” value [1] is reported as “one differentially expressed miRNA, namely ssc-miR-10b”, the “differentially expressed miRNAs in tissues, Control vs DON low” value [1] is reported as “no differentially expressed miRNAs” and the “effect on the miRNA expression profiles in liver and jejunum” value [1] is reported as “did not exhibit a strong effect”. The “number of serum miRNAs significantly altered in both DON low and DON high” value [2] was “eight”, the “number of serum miRNAs significantly altered, DON high vs Control” value [2] was 16 and the “number of serum miRNAs significantly altered, DON low vs Control” value [2] was 15. The “ssc-let-7a Log2 fold vs Control, DON high” value [2] was −0.502, the “ssc-let-7a Log2 fold vs Control, DON low” value [2] was “n.s” and the “ssc-let-7f-5p Log2 fold vs Control, DON high” value [2] was −0.503. For the same compound, the “ssc-let-7f-5p Log2 fold vs Control, DON low” value [2] was “n.s”, the “ssc-let-7g Log2 fold vs Control, DON high” value [2] was 0.662 and the “ssc-let-7g Log2 fold vs Control, DON low” value [2] was “n.s”. For the same compound, the “ssc-miR-10a-5p Log2 fold vs Control, DON high” value [2] was “n.s”, the “ssc-miR-10a-5p Log2 fold vs Control, DON low” value [2] was −0.806 and the “ssc-miR-10b Log2 fold vs Control, DON high” value [2] was −0.754. The “ssc-miR-10b Log2 fold vs Control, DON low” value [2] was −1.129, the “ssc-miR-10b direction of change in serum upon DON treatment” value [2] was “down-regulated” and the “ssc-miR-16 Log2 fold vs Control, DON high” value [2] was 0.773. For the same compound, the “ssc-miR-16 Log2 fold vs Control, DON low” value [2] was 1.217, the “ssc-miR-16 direction of change in serum of DON exposed pigs” value [2] was “up-regulated” and the “ssc-miR-17-5p Log2 fold vs Control, DON high” value [2] was 1.194. For the same compound, the “ssc-miR-17-5p Log2 fold vs Control, DON low” value [2] was “n.s”, the “ssc-miR-92a Log2 fold vs Control, DON high” value [2] was 0.476 and the “ssc-miR-92a Log2 fold vs Control, DON low” value [2] was “n.s”. For the same compound, the “ssc-miR-92b-3p Log2 fold vs Control, DON high” value [2] was “n.s”, the “ssc-miR-92b-3p Log2 fold vs Control, DON low” value [2] was −1.058 and the “ssc-miR-99b Log2 fold vs Control, DON high” value [2] was −1.226. The “ssc-miR-99b Log2 fold vs Control, DON low” value [2] was −1.393, the “ssc-miR-99b direction of change in serum upon DON treatment” value [2] was “down-regulated” and the “ssc-miR-103 Log2 fold vs Control, DON high” value [2] was −0.630. The “ssc-miR-103 Log2 fold vs Control, DON low” value [2] was “n.s”, the “ssc-miR-107 Log2 fold vs Control, DON high” value [2] was −0.619 and the “ssc-miR-107 Log2 fold vs Control, DON low” value [2] was “n.s”. The “ssc-miR-126-5p Log2 fold vs Control, DON high” value [2] was “n.s”, the “ssc-miR-126-5p Log2 fold vs Control, DON low” value [2] was −1.298 and the “ssc-miR-128 Log2 fold vs Control, DON high” value [2] was 0.887. The “ssc-miR-128 Log2 fold vs Control, DON low” value [2] was 1.124, the “ssc-miR-128 direction of change in serum of DON exposed pigs” value [2] was “up-regulated” and the “ssc-miR-148a-3p Log2 fold vs Control, DON high” value [2] was 0.521. For the same compound, the “ssc-miR-148a-3p Log2 fold vs Control, DON low” value [2] was “n.s”, the “ssc-miR-192 Log2 fold vs Control, DON high” value [2] was −0.928 and the “ssc-miR-192 Log2 fold vs Control, DON low” value [2] was −1.133. The “ssc-miR-192 direction of change in serum upon DON treatment” value [2] was “down-regulated”, the “ssc-miR-205 Log2 fold vs Control, DON high” value [2] was 5.102 and the “ssc-miR-205 Log2 fold vs Control, DON low” value [2] was 5.774. The “ssc-miR-205 direction of change in serum of DON exposed pigs” value [2] was “up-regulated”, the “ssc-miR-339-5p Log2 fold vs Control, DON high” value [2] was “n.s” and the “ssc-miR-339-5p Log2 fold vs Control, DON low” value [2] was 1.346. For the same compound, the “ssc-miR-339 Log2 fold vs Control, DON high” value [2] was “n.s”, the “ssc-miR-339 Log2 fold vs Control, DON low” value [2] was 1.345 and the “ssc-miR-361-3p Log2 fold vs Control, DON high” value [2] was “n.s”. The “ssc-miR-361-3p Log2 fold vs Control, DON low” value [2] was 2.023, the “ssc-miR-374a-3p Log2 fold vs Control, DON high” value [2] was −1.443 and the “ssc-miR-374a-3p Log2 fold vs Control, DON low” value [2] was −1.271. For the same compound, the “ssc-miR-374a-3p direction of change in serum upon DON treatment” value [2] was “down-regulated”, the “ssc-miR-451 Log2 fold vs Control, DON high” value [2] was 0.808 and the “ssc-miR-451 Log2 fold vs Control, DON low” value [2] was 1.375. For the same compound, the “ssc-miR-451 direction of change in serum of DON exposed pigs” value [2] was “up-regulated”, the “ssc-miR-1388 Log2 fold vs Control, DON high” value [2] was “n.s” and the “ssc-miR-1388 Log2 fold vs Control, DON low” value [2] was −1.281. The “doses of DON in feed starting from which feed consumption and weight gain decrease” value ([3]; EFSA summary of multiple feeding trials) was 0.6-2.0 ppm, the “effect on body weight at 3 ppm DON” value ([3]; exposure to 3 ppm DON (Grenier et al. 2011, 2013)) was “does not necessarily result in significant effects on body weight” and the “ssc-miR-16 normalized Cq-value log 2 fold change in the DON groups compared to the Control” value [4] was “increased”. The “ssc-miR-16 qPCR log2 fold change, DON_high vs Control” value [4] was 2.227, the “ssc-miR-16 qPCR log2 fold change, DON_low vs Control” value [4] was 3.504 and the “ssc-miR-128 normalized Cq-value log 2 fold change in the DON groups compared to the Control” value [4] was “increased”. The “ssc-miR-128 qPCR log2 fold change, DON_high vs Control” value [4] was 1.879, the “ssc-miR-128 qPCR log2 fold change, DON_low vs Control” value [4] was 3.885 and the “ssc-miR-205 normalized Cq-value log 2 fold change in the DON groups compared to the Control” value [4] was “increased”. The “ssc-miR-205 qPCR log2 fold change, DON_high vs Control” value [4] was 2.455, the “ssc-miR-205 qPCR log2 fold change, DON_low vs Control” value [4] was 4.973 and the “ssc-miR-451 normalized Cq-value log 2 fold change in the DON groups compared to the Control” value [4] was “increased”. The “ssc-miR-451 qPCR log2 fold change, DON_high vs Control” value [4] was 1.835, the “ssc-miR-451 qPCR log2 fold change, DON_low vs Control” value [4] was 2.663 and the “effect on serum interleukins IL1β, IL-8, IL-13, tumor necrosis factor or interferon-gamma” value [5] was “had no effect”. For the same compound, the “dietary DON concentrations at which a decrease of serum IGF1 was reported” value [6] was ≥ 3 ppm.
